Measurements: US20260364072A1, “METHODS FOR PROMOTING EXPANSION OF HUMAN CD34+ CELLS IN VIVO AND FOR PROMOTING NEURAL REGENERATION” (THE REGENTS OF THE UNIVERSITY OF CALIFORNIA, priority 2023, published 2026)

Key:
[1] = test system: ADAR1, CD44-012, PTK2B-202, MCL1 transcripts; assay: Transcripts in human CD34+ cells from treated engrafted sAML mice (qRT-PCR, RNA-seq); type: in vivo
Protocol: FIG. […]
For RNA editing analyses of whole transcriptome sequencing data, previous datasets were utilized from CD34^+ cells isolated from the spleens of sAML50261-engrafted mice treated once weekly with Rebecsinib in a dose-response assay (5 or 10 mg/kg),^14 along with CD34^+ cells harvested from mice that were serially transplanted with CD34+ cells from sAML50261-engrafted mice that had been treated twice weekly with Rebecsinib at 10 mg/kg (no further treatment was delivered to serial transplant recipients). Due to limiting number of cells remaining after treatment, cells were pooled from n=4 to 5 mice per condition for sequencing. RNA editing analysis was performed as previously described.^5
For quantitative analysis of splice isoform expression, RNA editing rates, and whole gene expression by qRT-PCR, cells or tissue fragments were harvested in RNA lysis buffer and total RNA was extracted using RNeasy mini or micro extraction kits (QIAGEN, Germantown, MD) following the manufacturer's protocol including a DNase incubation step to digest any trace genomic DNA present. Levels of ADAR1 variants and LSC-specific transcripts were quantified by qRT-PCR as previously described.^14 RNA-editing site-specific qRT-PCR (RESSqPCR) was performed for variants in AZIN1 transcripts.^53 Additional species-specific primers were also designed to quantify intron retention rates in cells treated with Rebecsinib as a biomarker of response to RNA splicing modulation. Specifically, for the two-step SYBR-green based assays, as previously described,^7,14,53 100-1000 ng of RNA were subjected to cDNA synthesis using the SUPERSCRIPT III™ (ThermoFisher Scientific) kit followed by qRT-PCR using SYBR GreenER (ThermoFisher Scientific) master mix according to the manufacturer's recommended procedures. qRT-PCR was performed using SYBR GREENER SUPER MIX™ (Life Technologies) on BioRad iQ5™, C1000 TOUCH™, or BioRad CFX384™ instruments. Human splice isoform-specific, RNA editing site-specific qPCR (RESSqPCR)^53. Primer sets that have not been previously published were designed and tested for efficiency followed by analyses in samples exposed to Rebecsinib, with species-specific HPRT primers used as controls. Samples with Ct<35 for the species-specific reference gene, HPRT, were included in analyses. Relative mRNA expression values were calculated using the 2^−ΔCT method, with normalization to untreated or vehicle-treated controls.^54
In humanized mouse models, sAML cells (CD34^+) from two unique […] patient samples that were splicing factor mutated or unmutated were utilized, including sAML50261 and sAML2008-5.^14 For in vivo efficacy and therapeutic index studies, sAML CD34^+ cells, or normal human cord blood-derived or aged bone marrow-derived HSPCs (CD34^+), were transplanted (50,000-200,000 cells per mouse) intrahepatically into neonatal Rag2^−/−γc^−/− mice, or intravenously into adult NSG-SGM3 mice (Jackson Laboratories, Bar Harbor, ME). A subset of experiments was performed with normal aged bone marrow cells that were transduced with the lentiviral ADAR1 nanoluc-GFP reporter vector prior to transplant. For transplantation into adult mice, animals were irradiated with ^137Cs at a dose of 150 cGy 24 hr before IV transplantation. After engraftment levels reached >1% human CD45^+ hematopoietic cells in the peripheral blood, animals were distributed among treatment groups for treatment with Rebecsinib or vehicle control essentially as previously described, with an increased dosing regimen of twice weekly (versus once weekly in prior studies)^14 and an optimized in vivo formulation (2% w/w EtOH, 5% w/v KOLLIPHOR HS™ 15 in 0.9% saline). […]

[2] = Rat single-dose toxicokinetic study; type: in vivo, Sprague Dawley rats; conditions: IV bolus; for Tmax / half-life: plasma
Protocol: Pre-IND PD and toxicokinetic (TK) studies (FIG. 4D) were enabled by scalable Rebecsinib synthesis^34 and development of an optimized formulation for in vivo biodistribution (5% w/v EtOH, 5% w/v Kolliphor HS15 in 0.9% Sodium Chloride). In PK studies, Rebecsinib was detectable in rat, rabbit, and non-human primate (NHP) plasma following IV bolus administration. In rat TK studies, Rebecsinib was quantifiable up to 1-hour post-dose at 1 mg/kg and up to 4 hours post-dose at 3, 5, and 8 mg/kg (FIG. 4E). […] Rebecsinib T1/2 values were 0.342, 0.447, 0.313, and 0.530 hours at 1, 3, 5, and 8 mg/kg, respectively. […] Following 3, 10, and 20 mg/kg boluses, Rebecsinib was quantifiable in plasma 1 hour post-dose and could be detected up to 8 hours post-dosing with 40 mg/kg (FIG. 4F). […] Following 3, 10, 15, and 20 mg/kg of Rebecsinib, quantifiable plasma concentrations of Rebecsinib were observed through 8 hrs post-dose (FIG. 4G).
(FIG. 29D) Schematic diagram outlining multispecies toxicokinetic (TK) and pharmacodynamic studies in mammalian species treated in vivo with a single dose of Rebecsinib. Toxicokinetic analyses were performed in rats (n=6 per sex, per group), rabbits (n=2 per sex, per group), and non-human primates (NHPs, n=1 per sex, per group) and pharmacodynamic splice isoform quantification studies were performed in peripheral blood mononuclear cells (PBMCs) from NHP.
(FIG. 29E, FIG. 29F) For toxicokinetic analyses, rats (FIG. 29E) and rabbits (FIG. 29F) were given a single injection of Rebecsinib at 1-40 mg/kg, or vehicle control, and blood samples were drawn at regular intervals to determine plasma concentrations of the compound over 8 hr after treatment.
Single-dose TK studies were performed in Sprague Dawley rats (Charles River Labs, South San Francisco, CA), New Zealand white rabbits (BASi/Inotiv, West Lafayette, IN), and cynomolgus monkeys (BASi/Inotiv). Rat and rabbit studies included toxicology analyses, quantification of plasma levels of Rebecsinib, and necropsies to evaluate organ integrity after treatment. For NHP studies, health and ophthalmological evaluations were performed before and after dosing with Rebecsinib, and blood samples were collected for quantification of plasma levels of Rebecsinib and biomarker studies in PBMCs from treated and control animals. All monkeys were returned to the animal colony after the end of the observation period. Toxicokinetic values including mean plasma concentrations and t1/2 values were calculated according to CRO-approved protocols (Charles River and BASi).

[3] = CD34+ cells, sAML50261 engrafted mice, vs vehicle

For CC[C@H](OC)[C@@H](C)[C@H]1O[C@@H]1[C@@H](O)[C@H](C)/C=C/C=C(\C)[C@H]1OC(=O)C[C@H](O)CC[C@@](C)(O)[C@@H](OC(C)=O)/C=C/[C@@H]1C [Rebecsinib], the “MCL1-S isoform expression in human CD34+ cells” value ([1]; CD34+ cells from bone marrows of treated mice) was “increase in the pro-apoptotic MCL1-S isoform expression”, the CD44-012 splice isoform [1, 3] was “significant reduction” and the PTK2B-202 splice isoform [1, 3] was “significant reduction”. The “total ADAR1 RNA expression by qRT-PCR” value [1, 3] was “significant reduction in total ADAR1 RNA expression”, the “MCL1 splice isoform switching” value ([1]; mice treated with 5 or 10 mg/kg, RNA-seq) was “splice isoform switching of MCL1-L to MCL1-S” and the “ADAR1 transcript splicing (RNA-seq)” value ([1]; sAML50261 engrafted mice, Rebecsinib-treated samples) was “unique retained intron regions and alternative splice site usage”. The “last time quantifiable in plasma” value ([2]; 1 mg/kg) was “up to 1 hour”, the “last time quantifiable in plasma” value ([2]; 3 mg/kg) was “up to 4 hours” and the “last time quantifiable in plasma” value ([2]; 5 mg/kg) was “up to 4 hours”. For the same molecule, the “last time quantifiable in plasma” value ([2]; 8 mg/kg) was “up to 4 hours”, the Tmax ([2]; 1 mg/kg) was ≤ 4.98 min and the half-life ([2]; 1 mg/kg) was 20.5 min. For the same molecule, the Tmax ([2]; 3 mg/kg) was ≤ 10 min, the half-life ([2]; 3 mg/kg) was 26.8 min and the Tmax ([2]; 5 mg/kg) was ≤ 4.98 min. For the same molecule, the half-life ([2]; 5 mg/kg) was 18.8 min, the Tmax ([2]; 8 mg/kg) was ≤ 10 min and the half-life ([2]; 8 mg/kg) was 31.8 min.
